Source: patent US20240307372A1, “COMPOSITIONS AND METHODS TO IMPROVE BENEFIT OF SUBOPTIMALLY ADMINISTERED THERAPEUCTICS FOR THE TREATMENT OF BENIGN AND NEOPLASTIC DISEASES, INFECTIONS, INFLAMMATORY, METABOLIC AND IMMUNOLOGIAL DISEASES” (priority 2023, published 2024)
pIC50: −log10 of the molar value. Like-named read-outs stand apart in the source and are kept apart here.

Columns and labels:
beta-Actin = beta-Actin level in K562 cell extracts by western blot; format: cell-based, human; conditions: K562 cells treated with up to 40 uM
Procedure: Briefly, the method to quantitate β-catenin protein by western blot was as follows: Extracts of K562 cells (untreated and treated with various concentrations of tetrandrine) were concentrated to 0.4 ml using Centricon-3 column to yield a protein concentration of approximately 2 mg/ml. Samples were mixed with 5× Laemmli buffer and loaded on 8-16% Tris-Glycine gradient gel, then polyacrylamide gel electrophoresis (PAGE) was run at 85 volts for 100 minutes at 6° C. and proteins were transferred on PVDF membrane at 70 Volts for 85 minutes at 8° C. Membrane was blocked with 5% milk in Tris-buffered Saline containing 0.1% TW-20 (TBST). Membrane was incubated with primary antibody for 18 hours at 4° C. followed by 3 washes, 5 minutes each, with TBST and incubated with secondary antibody in TBST for 2 hours at 25° C. The membrane was washed again with TBST as described above and incubated with ECL-2 substrate for 5 minutes and scanned on Kodak Image Station. After scan, blot was stripped of primary and secondary antibodies and re-probed with anti-beta Actin antibody as described above. Protein bands in WB images were quantitated using Molecular Imaging software pack MIS-4.0 software and tabulated in Excel spreadsheet.

K562 cells = experiment: K562 cell viability after TET exposure (trypan blue); format: cell-based, human; conditions: 24 hours
Procedure: Briefly, the method for the first portion of the study was as follows: K562 cells were grown and maintained in medium (RPMI, 10% FBS, Pen Strep and […]). Cells were then exposed to TET, 0, 0.1, 1, 5, 10, 20 & 40 μM for 24 hours at 37° C. Following drug exposure, cell viability was checked using trypan blue, followed by cell lysis. Supernatants were collected and test for protein concentration using a Pierce BCA kit. The protein assay tubes were read on a Spectramax at 562 nm and Softmax@ software was used for protein concentration analysis.
The effect of TET treatment on K562 percent cell viability is depicted in Table 2 and is graphically illustrated in FIG. 2.

bcr-abl = experiment: TaqMan qPCR assay for bcr-abl and abl in plucked CML colonies; format: cell-based, human; conditions: 10 μM
Procedure: To determine whether a colony was normal (bcr-abl negative and abl positive) or diseased (bcr-abl and abl positive), a TaqMan®-based qPCR test was used. In order to score the colonies positive or negative, the following scoring strategy was performed. All colonies were assayed in duplicate for each target. If a singleton reaction yielded a Ct then the reaction scored a 1. If no Ct was recorded, a score of 0 was given. From here, we used a logic test to score the colonies into four different categories: bcr-abl and abl, abl only, bcr-abl only or both negative. In order to be placed in a category, a colony must score a 1 in both reactions. However, if a colony only scored a 1 for one out of the two reactions, this colony was removed from the analysis. If a colony scored a 1 for each reaction (both ber-abl and abl) the colony was placed into the ber-abl and abl category, signifying it as a diseased colony. Alternatively, if a colony scored a 1 in only both of the ber-abl reactions or a 1 in only both the abl reactions, the colony was placed in the ber-abl only or abl only category, respectively. If the colony scored a 0 for both targets (bcr-abl and abl) then the colony was placed in the both negative category.
In total 48 primary colonies and 31 secondary replated colonies were assessed for bcr-abl and abl using qPCR. […] Thirteen secondary colonies treated with Tetrandrine at 10 μM were assessed.

[1] = tested on: CML colonies (secondary clonal growth); experiment: Replating assay, secondary clonal growth of CML colonies; format: cell-based, human; conditions: colonies from original cultures with ES-3000 @10 μM
hERG = hERG (Homo sapiens, UniProt Q12809); experiment: hERG inhibition, IonWorks HT electrophysiology in CHO cells stably transfected with hERG; conditions: for pIC50: read-out: hERG IC50, CHO cells stably transfected with hERG, 300 sec contact
Procedure: The purpose of this study was to evaluate the potential of a test article to inhibit hERG. The experiments are performed on an Ion Works™ HT instrument (Molecular Devices Corporation), which automatically performs electrophysiology measurements in […] single cells simultaneously in aspecialized 384-well plate (PatchPlate). All cell suspensions, buffers and test compound solutions are at room temperature during the experiment. The cells used are Chinese hamster ovary (CHO) cells stably transfected with hERG (cell-line obtained from Cytomyx, UK). A single-cell suspension is prepared in extracellular solution (Dulbecco's phosphate buffered saline with calcium and magnesium pH 7-7.2) and aliquots added automatically to each well of a PatchPlate™. The cells are then positioned over a small hole at the bottom of each well by applying a vacuum beneath the plate to form an electrical seal. The vacuum is applied through a single compartment common to all wells which is filled with intracellular solution (buffered to pH 7.2 with HEPES). The resistance of cach seal is measured via a common ground-electrode in the intracellular compartment and individual electrodes placed into each of the upper wells. Electrical access to the cell is then achieved by circulating a perforating agent, amphotericin, underneath the PatchPlate and then measuring the pre-compound hERG current. An electrode is positioned in the extracellular compartment and a holding potential of −80 mV applied for 15 sec. The hERG channels are then activated by applying a depolarizing step to +40 mV for 5 sec and then clamped at −50 mV for 4 sec to elicit the hERG tail current, before returning to −80 mV for 0.3 sec. Test compound is then added automatically to the upper wells of the PatchPlateTM from a 96-well microtitre plate containing a range of concentrations of each compound. […] The test compound is left in contact with the cells for 300 sec before recording currents using the same voltage-step protocol as in the pre-compound scan. […] Each concentration is tested in 4 replicate wells on the PatchPlate™. […] Post-compound currents are then expressed as a percentage of pre-compound currents and plotted against concentration for each compound (FIG. 8). Testing was conducted by Cyprotex US, LLC, Watertown, MA.

[2] = Primary colonies, of 17 colonies
[3] = Secondary colonies, of 10 colonies

hERG, sequence (Q12809 whole entry): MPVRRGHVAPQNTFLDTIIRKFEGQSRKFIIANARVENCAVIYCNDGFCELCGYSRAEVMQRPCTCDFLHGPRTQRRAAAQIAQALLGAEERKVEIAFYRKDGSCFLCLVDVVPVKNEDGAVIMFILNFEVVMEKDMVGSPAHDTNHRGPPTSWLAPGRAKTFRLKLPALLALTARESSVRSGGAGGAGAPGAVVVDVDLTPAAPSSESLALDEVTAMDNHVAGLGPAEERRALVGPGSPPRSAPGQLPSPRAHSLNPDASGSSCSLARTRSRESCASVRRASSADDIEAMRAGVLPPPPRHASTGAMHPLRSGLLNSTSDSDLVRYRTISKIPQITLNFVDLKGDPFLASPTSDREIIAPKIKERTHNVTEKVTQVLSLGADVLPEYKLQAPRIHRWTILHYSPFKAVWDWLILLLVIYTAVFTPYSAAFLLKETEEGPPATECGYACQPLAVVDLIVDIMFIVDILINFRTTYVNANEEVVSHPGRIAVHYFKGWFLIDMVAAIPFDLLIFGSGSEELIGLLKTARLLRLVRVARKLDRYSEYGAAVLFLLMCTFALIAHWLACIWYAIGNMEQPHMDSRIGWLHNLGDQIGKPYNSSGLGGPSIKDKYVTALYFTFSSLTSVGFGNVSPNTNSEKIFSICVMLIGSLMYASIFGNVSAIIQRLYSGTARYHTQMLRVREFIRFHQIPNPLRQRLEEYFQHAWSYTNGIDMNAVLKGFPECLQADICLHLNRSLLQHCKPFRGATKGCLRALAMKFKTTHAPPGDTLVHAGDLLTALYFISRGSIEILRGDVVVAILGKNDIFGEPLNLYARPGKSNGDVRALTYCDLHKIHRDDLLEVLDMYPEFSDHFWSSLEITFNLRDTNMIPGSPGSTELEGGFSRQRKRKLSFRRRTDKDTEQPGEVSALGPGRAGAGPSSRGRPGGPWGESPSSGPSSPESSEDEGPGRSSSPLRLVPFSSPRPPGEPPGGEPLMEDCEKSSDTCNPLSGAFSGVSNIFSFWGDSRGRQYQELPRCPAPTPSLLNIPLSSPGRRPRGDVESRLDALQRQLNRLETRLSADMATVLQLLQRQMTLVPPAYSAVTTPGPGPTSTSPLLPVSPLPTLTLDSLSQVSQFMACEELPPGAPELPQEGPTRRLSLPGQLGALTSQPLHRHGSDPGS

## 6,6′,7,12-tetramethoxy-2,2′-dimethyl-berbaman [ES-3000]
beta-Actin
  beta-Actin level (quantitation of protein bands): not affected significantly
K562 cells; 0.1 μM
  % Viability: 82.4%
K562 cells; 1 μM
  % Viability: 79.2%
K562 cells; 5 μM
  % Viability: 81.8%
K562 cells; 10 μM
  % Viability: 79.7%
K562 cells; 20 μM
  % Viability: 76.5%
K562 cells; 40 μM
  % Viability: 56.4%
bcr-abl; Primary colonies
  abl only colonies: 1
  bcr-abl and abl colonies: 11
  bcr-abl only colonies: 1
  both negative colonies: 4
bcr-abl; [2]
  colonies abl positive only: 5.8%
  colonies bcr-abl and abl positive: 65%
  colonies negative for both targets: 23.5%
bcr-abl; Primary colonies, of 17 colonies, listed as Tetrandrine
  colonies bcr-abl and abl positive: 64.7%
bcr-abl; Secondary colonies
  abl only colonies: 1
  bcr-abl and abl colonies: 0
  bcr-abl only colonies: 0
  both negative colonies: 9
bcr-abl; [3]
  colonies negative for both bcr-abl and abl: 90%
  colonies positive for abl only: 10%
[1]
  average CFC per well (secondary growth): three
  wells supported secondary growth with one or more colony: 54.2%
hERG
  pIC50: 5.29
hERG; listed as TET
  pIC50: 5.28
hERG; subjects
  plasma level above which QT prolongation might be expected: above 249 ng/mL
hERG; utilizing Cmax from previous human clinical experience
  safety margin for cardiac conduction-related toxicity (hERG IC50 versus human Cmax): 13 fold
